Measured values reported in patent US7361633B2, “Screening method and anti-tumor drug candidate obtained therefrom” (Ardana Bioscience Limited, priority 2002, dated 2008).
Entries after “also recorded” stand apart in the source; their conditions may differ. Square brackets hold non-standard residues; d marks the D form. Peptide text beside a SMILES is read from it. dPhe(4-Cl) = N[C@H](Cc1ccc(Cl)cc1)C(=O)O; d2Nal = N[C@H](Cc1ccc2ccccc2c1)C(=O)O; dCit = NC(=O)NCCC[C@@H](N)C(=O)O; d3Pal = N[C@H](Cc1cccnc1)C(=O)O; pGlu = O=C1CC[C@@H](C(=O)O)N1

Assays:
[1] = system: androgen-resistant tumor cells; details: compared with androgen-dependent prostate cancers; Jungwirth et al; cited from earlier work
[2] = system: PTX-sensitive/Gαi-dependent MAPK isoform activation; test: PTX-sensitive/Gαi-dependent MAPK isoform activation (data not shown); type: cell-based
[3] = system: ERK1/2; test: ERK1/2 phosphorylation immunoblot in JEG-3 cells; type: cell-based, human; details: 100 nM, 10 minutes
[4] = system: HEK293 cells stably expressing the Type I GnRHR (SCL60); test: Anti-proliferative effect on SCL60 cells, viable cell count after 5 days; type: cell-based, human; details: 5 days continuous treatment, trypan blue exclusion
Description: An identical methodology of measuring cell growth was employed as in FIG. 1.
(§1) Each cell type was plated at an initial minimal confluency (10-20%) to allow for 5 days of normal continual cell growth that would not result in 100% cell confluency by day 5. Each ligand was incubated, in triplicate for every experimental concentration, with the cell monolayers for five days with replacement of the ligand every 12 h. At the end of the stimulation period the number of viable cells was estimated by their capacity to prevent uptake of Trypan Blue stain.
We further investigated the nature of the ligand-receptor specificity of the anti-proliferative effects of GnRH receptor systems by studying our ligand panel effects upon a model cell background, i.e. SCL60 HEK293 cells stably expressing the rat Type I GnRHR. […] We attribute this greater effect of the GnRHR ligands upon the SCL60 cells to the much greater level of receptor expression in the SCL60 cells.

[5] = system: PLC-β; test: Inositol phosphate accumulation in BPH-1 cells; type: cell-based, human
Description: BPH-1 cells were pre-incubated with ^3H-myoinositol (1 μCi/ml) for 48 h prior to ligand stimulation (60 minutes). Ligand stimulated inositol phosphate production was measured in the presence of 10 mM LiCl. […] IP accumulation can be used as a read out/marker for Gαq activation since the activation of PLCβ is PTX-resistant.

[6] = system: human JEG-3 choriocarcinoma cells; test: Anti-proliferative effect on JEG-3 cells, viable cell count after 5 days; type: cell-based; details: 5 days continuous treatment, trypan blue exclusion
Description: (§2) Low cell density JEG-3 cell subcultures were treated for 5 days continuously with the indicated doses of GnRH I (a), GnRH II (b), antagonist 135-18 (c) or antagonist 135-25 (d) added directly to Dulbecco's modified Eagles medium supplemented with 10% FCS, glutamine and penicillin/streptomycin. Ligands were replenished every 24 h. At the end of the stimulation period cells were removed from the growth plates with trypsin and mixed with trypan blue dye (enters non-viable cells). Only viable cells were therefore counted using a haemocytometer in quadruplicate for each ligand dose. The bars in each histogram represent the mean±s.e. mean of n=4 experiments.
as §1

[7] = system: ERK1/2; test: ERK1/2 phosphorylation immunoblot in BPH-1 cells; type: cell-based, human; details: FIG. 5 panel c
Text: The panel depicts a representative anti-phospho-ERK1/2 w-c lysate immunoblot of stimulated BPH-1 cell extracts. […] Each bar of the histogram represents the mean±s.e. mean of three to four experimental replicates. […] Panel c) depicts the extent of ERK1/2 activation in BPH-1 cells induced by stimulation with GnRH I, II, Ant 135-25 and Ant 135-18. […] Each bar of the histogram represents the mean± s.e. mean of three to four experimental replicates.

[8] = biological target: T1, marmoset Type II GnRH receptor (Callithrix jacchus, UniProt Q95MG6); test: Inositol phosphate accumulation in αT4-II cells; type: cell-based; details: GnRH II 10 nM
T1 construct: expressed in transfected cells
T1 sequence (Q95MG6 1-380): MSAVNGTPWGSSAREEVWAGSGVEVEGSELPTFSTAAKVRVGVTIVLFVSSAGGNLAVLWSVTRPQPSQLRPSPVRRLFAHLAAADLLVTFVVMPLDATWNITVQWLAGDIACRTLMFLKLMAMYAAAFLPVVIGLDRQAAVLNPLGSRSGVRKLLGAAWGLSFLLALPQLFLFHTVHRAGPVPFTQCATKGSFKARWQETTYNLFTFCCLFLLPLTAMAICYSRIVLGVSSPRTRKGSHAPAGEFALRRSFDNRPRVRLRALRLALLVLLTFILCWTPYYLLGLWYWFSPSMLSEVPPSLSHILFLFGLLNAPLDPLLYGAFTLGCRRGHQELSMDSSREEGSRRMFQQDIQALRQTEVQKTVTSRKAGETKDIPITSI
Description: The histograms in panels a and b represent inositol phosphate accumulation data from HEK293 cells stably expressing the Type I GnRH receptor only (SCL60). […] In panels c and d, the liberated inositol phosphates generated were measured in the proto-gonadotrope cells (αT4) stably expressing the marmoset Type II GnRH receptor (designated αT4-II).
The ability of the four major agents under study at activating ectopically expressed Type I or Type II GnRHR were tested (FIG. 12). The classical signal transduction cascade activated by GnRHR stimulation is the Gαq-PLC-β cascade. Both Type I and II receptor can stimulate the Gαq-PLC type-G-protein and activate PLC-β which cleaves phosphatidylinositol bisphosphate (PIP2) into inositol trisphosphate (IP3), other lower inositol phosphates (IPn) and diacylglycerol (DAG). The major function of IP3 is to elevate intracellular Ca^2+ while DAG causes the activation of specific PKC (protein kinase C) isoforms.
Panels a and b of FIG. 12 depict the generation of free cytoplasmic ^3H-myo-inositols on the plasma membranes of HEK293 cells expressing the Type I GnRHR and of αT4 gonadotropes expressing the marmoset Type II GnRHR. Prior to agonist stimulation the respective cells were incubated in inositol-free growth media supplemented with 1 μCi/ml ^3H-myoinositol for 48 h. G protein coupled receptor (GPCR)-induced activation of PLC-β results in the cleavage of PIP2 (incorporating tritium ^3H) into free lower inositol phosphates (IPns).

[9] = system: human benign prostate hyperplastic (BPH-1) cells; test: Anti-proliferative effect on BPH-1 cells, viable cell count after 5 days; type: cell-based; details: 5 days continuous treatment, trypan blue exclusion
Description: as §2, with “density BPH-1” for “density JEG-3”, “(b), Ant” for “(b), antagonist”, “or Ant” for “or antagonist”, “to RPMI 1640” for “to Dulbecco's modified Eagles”, “removed form” for “removed from”, “plates by” for “plates with”
as §1
Employing an identical growth and stimulation methodology to that described in the previous paragraph and in FIG. 1 we exposed the hyperplastic cell line, BPH-1, to the same panel of GnRH ligands and antagonistic analogues (FIG. 2). Reminiscent of FIG. 1 both endogenous GnRH agonists exert a similar mode of action with respect to their dose-dependent inhibition of BPH-1 cell growth over the five day stimulation period.

Row | Molecule | doses required to attenuate growth of androgen-resistant tumor cells [1] | potency at stimulating PTX-sensitive/Gαi-dependent MAPK isoform activation [2] | extent of ERK1/2 phosphorylation (activation) [3] | anti-proliferative effect (viable cell number) [4] | inositol phosphate accumulation ([5]; 60 minutes, 10 mM LiCl, doses up to 50 μM) | anti-proliferative effect (viable cell number) [6] | extent of ERK1/2 activation [7] | agonistic activity: liberated inositol phosphates at marmoset Type II GnRH receptor [8] | anti-proliferative effect (viable cell number) [9] | effect of pertussis toxin pre-incubation on induced inositol phosphate accumulation ([5]; PTX 200 ng/ml 16 h, GnRH I 50 μM)
1 | CC(=O)N[C@H](Cc1ccc2ccccc2c1)C(=O)N[C@H](Cc1ccc(Cl)cc1)C(=O)N[C@H](Cc1cccnc1)C(=O)N[C@@H](CO)C(=O)N[C@@H](Cc1ccc(O)cc1)C(=O)N[C@H](CCCNC(N)=O)C(=O)N[C@@H](CC(C)C)C(=O)N[C@@H](CCCNC(=N)N)C(=O)N1CCC[C@H]1C(=O)N[C@H](C)C(N)=O [Cetrorelix] (Ac-[d2Nal][dPhe(4-Cl)][d3Pal]SY[dCit]LRP[dA]-NH2) | considerably higher doses | significantly less potent than Ant 135-25 | – | – | – | – | – | – | – | –
2 | GnRH II: A second form of GnRH, identified in the mid-brain of many vertebrates ([pGlu]HWSHGWYPG-NH2; ends and bridges not checked; UniProt O43555 24-33, looked up) | – | – | less effective | greater anti-proliferative efficacy; also recorded: less potent than GnRH I at arresting the SCL60 cell growth | poor activity; also recorded: small capacity to induce inositol phosphate accumulation | potent and dose-dependent anti-proliferative effect; also recorded: clear dose-response relationships for the inhibition of cellular growth | A similar pattern to JEG-3 of ligand activation | yields an increase in free tritiated inositol phosphates; also recorded: results in a similar action to GnRH I upon the SCL60 cells | – | –
3 | lysophosohatidic acid [LPA] | – | – | – | – | – | failed to significantly attenuate the cell growth | – | – | failed to significantly attenuate the cell growth | insensitive to PTX pre-incubation; also recorded: completely insensitive to the pertussis toxin
